Values of other authors, collected in patent US7151091B2, “Compositions and methods for preventing infection” (The Johns Hopkins University, priority 2002, dated 2006).

What was measured:
[1] = concentrations ranging from 5–100 mM
[2] = test system: human immunodeficiency virus (HIV); conditions: given to HIV-infected pregnant women before and during childbirth and to their infants after childbirth

| Structure (SMILES) | removal of membrane cholesterol [1] | reduction of HIV transmission [2] |
| --- | --- | --- |
| CC(O)COC[C@H]1O[C@@H]2O[C@H]3[C@H](O)[C@@H](O)[C@@H](O[C@H]4[C@H](O)[C@@H](O)[C@@H](O[C@H]5[C@H](O)[C@@H](O)[C@@H](O[C@H]6[C@H](O)[C@@H](O)[C@@H](O[C@H]7[C@H](O)[C@@H](O)[C@@H](O[C@H]8[C@H](O)[C@@H](O)[C@@H](O[C@H]1[C@H](O)[C@H]2O)O[C@@H]8COCC(C)O)O[C@@H]7COCC(C)O)O[C@@H]6COCC(C)O)O[C@@H]5COCC(C)O)O[C@@H]4COCC(C)O)O[C@@H]3COCC(C)O (stereo partly drawn) [2-OH-propyl-beta-cyclodextrin] | removes membrane cholesterol within minutes | – |
| Cc1cn([C@H]2C[C@H](N=[N+]=[N-])[C@@H](CO)O2)c(=O)[nH]c1=O [zidovudine] | – | two-thirds |
